These results are taken from patent publication US11279687B2, “Compounds and compositions for the inhibition of NAMPT” (Valo Health, Inc., priority 2010, dated 2022).

For one assay, the target named is NAMPT (Homo sapiens (Human), UniProt P43490). Description: NAMPT biochemical inhibition assay (NMN quantified by mass spectrometry). Particulars: NAMPT biochemical inhibition; read-out: Biochem IC50.
The next assay relates to A2780 cells. Description: In-vitro cell proliferation assay (SRB), A2780 cells.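 Note: viable cell number read as SRB absorbance, background from media-only wells subtracted, IC50 interpolated from percent inhibition at two bracketing compound concentrations.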 The class given is cell-based. The following applies: A2780 cells, 72 hours, SRB, read-out: A2780 IC50.

Where two headings read alike, the source gives them in different places. Some results are limits rather than exact numbers.

Sequence of NAMPT (P43490 whole entry): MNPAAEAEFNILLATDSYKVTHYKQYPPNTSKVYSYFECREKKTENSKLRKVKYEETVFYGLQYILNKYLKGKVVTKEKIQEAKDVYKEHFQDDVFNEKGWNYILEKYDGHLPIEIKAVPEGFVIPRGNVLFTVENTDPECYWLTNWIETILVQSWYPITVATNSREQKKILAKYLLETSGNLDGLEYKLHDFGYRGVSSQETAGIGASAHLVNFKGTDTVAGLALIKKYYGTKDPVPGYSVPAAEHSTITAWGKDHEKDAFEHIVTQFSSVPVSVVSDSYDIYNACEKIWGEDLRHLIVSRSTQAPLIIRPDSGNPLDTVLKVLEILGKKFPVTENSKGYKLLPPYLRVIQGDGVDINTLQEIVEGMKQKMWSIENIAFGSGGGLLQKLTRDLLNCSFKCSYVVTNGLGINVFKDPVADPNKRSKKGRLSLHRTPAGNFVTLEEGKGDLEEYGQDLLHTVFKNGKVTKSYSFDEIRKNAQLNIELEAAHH

The term IC50 denotes the concentration needed to halve the response being measured. As to `O=C(NCc1cccnc1)Nc1ccc(S(=O)(=O)c2cccc3c2Oc2ccccc2S3)cc1` [1-[4-(phenoxathiine-4-sulfonyl)phenyl]-3-(pyridin-3-ylmethyl)urea], the IC50 on NAMPT is 2.9 nM; in the assay on A2780 cells (Homo sapiens, A2780, 72 h) it was 1.8 nM.

Take `O=C(NCc1cccnc1)Nc1ccc(S(=O)(=O)c2ccc(C(F)(F)F)nc2)cc1` [1-(pyridin-3-ylmethyl)-3-{4-[6-(trifluoromethyl)pyridine-3-sulfonyl]phenyl}urea]: the IC50 is 27.9 nM on NAMPT and 1000 to 10000 nM with A2780 cells (Homo sapiens, A2780, 72 h).

As for `O=C(NCc1cccnc1)Nc1ccc(S(=O)(=O)c2cccc3c2OCC3)cc1` [1-[4-(2,3-dihydro-1-benzofuran-7-sulfonyl)phenyl]-3-(pyridin-3-ylmethyl)urea], the IC50 on NAMPT worked out at 1.1 nM; with A2780 cells (Homo sapiens, A2780, 72 h), 10.5 nM.

As for `O=C(NCc1cccnc1)Nc1ccc(S(=O)(=O)Nc2cccc(N3CCOCC3)c2)cc1` [1-(4-{[3-(morpholin-4-yl)phenyl]sulfamoyl}phenyl)-3-(pyridin-3-ylmethyl)urea], the IC50 on NAMPT turned out to be 6 nM; in the assay on A2780 cells (Homo sapiens, A2780, 72 h), 103 nM.

For `CN(C)S(=O)(=O)c1cccc(S(=O)(=O)c2ccc(NC(=O)NCc3cccnc3)cc2)c1` [3-(4-{[3-(dimethylsulfamoyl)benzene]sulfonyl]phenyl)-1-(pyridin-3-ylmethyl)urea], the IC50 on NAMPT came to 3.3 nM; in the assay on A2780 cells (Homo sapiens, A2780, 72 h) it was 79.3 nM.

Turning to `O=C(NCc1cccnc1)Nc1ccc(S(=O)(=O)c2ccc(C(F)(F)F)c(Cl)c2)cc1` [3-(4-{[3-chloro-4-(trifluoromethyl)benzene]sulfonyl}phenyl)-1-(pyridin-3-ylmethyl)urea], the IC50 was 4 nM on NAMPT and 100 to 1000 nM in the assay with A2780 cells (Homo sapiens, A2780, 72 h).

As for `Cc1ccc(Cl)cc1N1CCN(S(=O)(=O)c2ccc(NC(=O)NCc3cccnc3)cc2)CC1` [3-{4-[4-(5-chloro-2-methylphenyl)piperazine-1-sulfonyl]phenyl}-1-(pyridin-3-ylmethyl)urea], the IC50 at NAMPT came out at 2 nM; in the assay on A2780 cells (Homo sapiens, A2780, 72 h) it was 162 nM.

As for `O=C(NCc1cccnc1)Nc1ccc(S(=O)(=O)c2ccc(-c3ccccc3)cc2)cc1` [1-{4-[(4-phenylbenzene)sulfonyl]phenyl}-3-(pyridin-3-ylmethyl)urea], the IC50 at NAMPT is 5.8 nM; with A2780 cells (Homo sapiens, A2780, 72 h), 100 to 1000 nM.

`O=C(NCc1cccnc1)Nc1ccc(S(=O)(=O)c2cc(Cl)cc(C(F)(F)F)c2)cc1` [3-(4-{[3-chloro-5-(trifluoromethyl)benzene]sulfonyl}phenyl)-1-(pyridin-3-ylmethyl)urea]: the IC50 at NAMPT was determined as 1.3 nM; in the assay on A2780 cells (Homo sapiens, A2780, 72 h) it was 25.5 nM.

As for `O=C(NCc1cccnc1)Nc1ccc(S(=O)(=O)NC2CCCCCC2)cc1` [1-[4-(cycloheptylsulfamoyl)phenyl]-3-(pyridin-3-ylmethyl)urea], the IC50 on NAMPT stood at 3 nM; in the assay on A2780 cells (Homo sapiens, A2780, 72 h), 80 nM.

With `O=C(NCc1cccnc1)Nc1ccc(S(=O)(=O)N2CCCC(C(F)(F)F)C2)cc1` (stereo not shown) [1-(pyridin-3-ylmethyl)-3-{4-[3-(trifluoromethyl)piperidine-1-sulfonyl]phenyl}urea], the IC50 came out at 3 nM on NAMPT and 26 nM with A2780 cells (Homo sapiens, A2780, 72 h).

`O=C(NCc1cccnc1)Nc1ccc(S(=O)(=O)N2CCN(C(c3ccc(F)cc3)c3ccc(F)cc3)CC2)cc1` [3-(4-{4-[bis(4-fluorophenyl)methyl]piperazine-1-sulfonyl}phenyl)-1-(pyridin-3-ylmethyl)urea]: the IC50 amounted to 5 nM at NAMPT and 7 nM in the assay with A2780 cells (Homo sapiens, A2780, 72 h).

For `CCN(CC)C(=O)c1cc(F)cc(S(=O)(=O)c2ccc(NC(=O)NCc3cccnc3)cc2)c1` [N,N-diethyl-3-fluoro-5-[(4-{[(pyridin-3-ylmethyl)carbamoyl]amino[benzene)sulfonyl]benzamide], the half-inhibitory concentration (IC50) at NAMPT is 1.2 nM; in the assay on A2780 cells it was 1.5 nM.

`Cc1cc(C)c(S(=O)(=O)c2ccc(NC(=O)NCc3cccnc3)cc2)c(C)c1` [1-(pyridin-3-ylmethyl)-3-{4-[(2,4,6-trimethylbenzene)sulfonyl]phenyl}urea]: the IC50 at NAMPT is 11 nM; with A2780 cells (Homo sapiens, A2780, 72 h) it was > 1000 nM.

Turning to `CCc1ccc(CN(C)S(=O)(=O)c2ccc(NC(=O)NCc3cccnc3)cc2)nc1` [3-(4-{[(5-ethylpyridin-2-yl)methyl](methyl)sulfamoyl}phenyl)-1-(pyridin-3-ylmethyl)urea], the 50% inhibitory concentration (IC50) at NAMPT was found to be 5 nM; in the assay on A2780 cells (Homo sapiens, A2780, 72 h) it was 134 nM.

With `Cc1ccc(NS(=O)(=O)c2ccc(NC(=O)NCc3cccnc3)cc2)c(Cl)c1` [3-{4-[(2-chloro-4-methylphenyl)sulfamoyl]phenyl}-1-(pyridin-3-ylmethyl)urea], the half-maximal inhibitory concentration (IC50) was found to be 1 nM at NAMPT and 32 nM in the assay with A2780 cells (Homo sapiens, A2780, 72 h).

Turning to `O=C(NCc1cccnc1)Nc1ccc(S(=O)(=O)N2CCN(c3ncc(C(F)(F)F)cc3Cl)CC2)cc1` [3-(4-{4-[3-chloro-5-(trifluoromethyl)pyridin-2-yl]piperazine-1-sulfonyl}phenyl)-1-(pyridin-3-ylmethyl)urea], the IC50 at NAMPT was 5 nM; with A2780 cells (Homo sapiens, A2780, 72 h) it was 128 nM.

On to `CCN(C(C)=O)[C@H]1CCN(S(=O)(=O)c2ccc(NC(=O)NCc3cccnc3)cc2)C1` [N-ethyl-N-[(3S)-1-[(4-{[(pyridin-3-ylmethyl)carbamoyl]amino}benzene)sulfonyl]pyrrolidin-3-yl]acetamide], for which the IC50 on NAMPT turned out to be 6 nM; in the assay with A2780 cells (Homo sapiens, A2780, 72 h), 79 nM.

In the case of `CC(C)c1ccc(CN2CCN(S(=O)(=O)c3ccc(NC(=O)NCc4cccnc4)cc3)CC2)cc1` [3-[4-(4-{[4-(propan-2-yl)phenyl]methyl[piperazine-1-sulfonyl)phenyl]-1-(pyridin-3-ylmethyl)urea], the IC50 is 35.8 nM on NAMPT and 1000 to 10000 nM in the assay on A2780 cells.

As for `CC(=O)Nc1cccc(S(=O)(=O)c2ccc(NC(=O)NCc3cccnc3)cc2)c1` [N-{3-[(4-{[(pyridin-3-ylmethyl)carbamoyl]amino}benzene)sulfonyl]phenyl}acetamide], the IC50 at NAMPT was found to be 1.5 nM; with A2780 cells (Homo sapiens, A2780, 72 h) it was 39.5 nM.

As to `O=C(NCc1cccnc1)Nc1ccc(S(=O)(=O)N2CCc3ccccc32)cc1` [3-[4-(2,3-dihydro-1H-indole-1-sulfonyl)phenyl]-1-(pyridin-3-ylmethyl)urea], the concentration for half-maximal inhibition (IC50) at NAMPT is 2 nM; in the assay on A2780 cells (Homo sapiens, A2780, 72 h) it was 31 nM.

Take `O=C(NCc1cccnc1)Nc1ccc(S(=O)(=O)c2cccc(F)c2F)cc1` [3-{4-[(2,3-difluorobenzene)sulfonyl]phenyl}-1-(pyridin-3-ylmethyl)urea]: the IC50 on NAMPT is 4 nM; in the assay on A2780 cells (Homo sapiens, A2780, 72 h), 546 nM.

Take `O=C(NCc1cccnc1)Nc1ccc(S(=O)(=O)N2CCN(C(=O)Cc3ccccc3)CC2)cc1` [1-{4-[4-(2-phenylacetyl)piperazine-1-sulfonyl]phenyl}-3-(pyridin-3-ylmethyl)urea]: the IC50 amounted to 3 nM on NAMPT and 932 nM in the assay on A2780 cells (Homo sapiens, A2780, 72 h).

For `COc1cc(F)c(S(=O)(=O)c2ccc(NC(=O)NCc3cccnc3)cc2)cc1F` [3-{4-[(2,5-difluoro-4-methoxybenzene)sulfonyl]phenyl}-1-(pyridin-3-ylmethyl)urea], the half-maximal inhibitory concentration (IC50) at NAMPT was determined as 4 nM; in the assay on A2780 cells (Homo sapiens, A2780, 72 h) it was 105 nM.

With `O=C(NCc1cccnc1)Nc1ccc(S(=O)(=O)N2CCCC[C@@H]2CN2CCOCC2)cc1` [1-{4-[(2R)-2-(morpholin-4-ylmethyl)piperidine-1-sulfonyl]phenyl}-3-(pyridin-3-ylmethyl)urea], the IC50 at NAMPT stood at 51 nM; with A2780 cells (Homo sapiens, A2780, 72 h) it was 81 nM.

On to `CN(C)c1ccc(S(=O)(=O)c2ccc(NC(=O)NCc3cccnc3)cc2)cn1` [3-{4-[6-(dimethylamino)pyridine-3-sulfonyl]phenyl}-1-(pyridin-3-ylmethyl)urea], for which the IC50 at NAMPT was 3 nM; in the assay with A2780 cells (Homo sapiens, A2780, 72 h) it was 74.9 nM.

For `COc1ccc(C(C)=O)cc1S(=O)(=O)c1ccc(NC(=O)NCc2cccnc2)cc1` [3-{4-[(5-acetyl-2-methoxybenzene)sulfonyl]phenyl}-1-(pyridin-3-ylmethyl)urea], the IC50 is 1.3 nM on NAMPT and 1.7 nM with A2780 cells (Homo sapiens, A2780, 72 h).

Turning to `O=C(NCc1cccnc1)Nc1ccc(S(=O)(=O)Nc2cccnc2Oc2ccc(F)cc2)cc1` [3-(4-{[2-(4-fluorophenoxy)pyridin-3-yl]sulfamoyl}phenyl)-1-(pyridin-3-ylmethyl)urea], the IC50 turned out to be 11 nM at NAMPT and 149 nM in the assay with A2780 cells (Homo sapiens, A2780, 72 h).

In the case of `CS(=O)(=O)c1ccc(S(=O)(=O)c2ccc(NC(=O)NCc3cccnc3)cc2)cc1` [3-{4-[(4-methanesulfonylbenzene)sulfonyl]phenyl}-1-(pyridin-3-ylmethyl)urea], the IC50 at NAMPT was 2 nM; in the assay with A2780 cells (Homo sapiens, A2780, 72 h) it was 91 nM.

With `CCOc1ccccc1N1CCN(S(=O)(=O)c2ccc(NC(=O)NCc3cccnc3)cc2)CC1` [3-{4-[4-(2-ethoxyphenyl)piperazine-1-sulfonyl]phenyl]-1-(pyridin-3-ylmethyl)urea], the IC50 came out at 2 nM on NAMPT and 6 nM in the assay with A2780 cells (Homo sapiens, A2780, 72 h).

Turning to `CCCS(=O)(=O)Nc1cccc(S(=O)(=O)c2ccc(NC(=O)NCc3cccnc3)cc2)c1` [3-(4-{[3-(propane-1-sulfonamido)benzene]sulfonyl}phenyl)-1-(pyridin-3-ylmethyl)urea], the IC50 on NAMPT stood at 1.6 nM; in the assay on A2780 cells (Homo sapiens, A2780, 72 h), 86 nM.

With `O=C(NCc1cccnc1)Nc1ccc(S(=O)(=O)N2CCCC(CN3CCCC3=O)C2)cc1` (stereo not shown) [1-(4-{3-[(2-oxopyrrolidin-1-yl)methyl]piperidine-1-sulfonyl}phenyl)-3-(pyridin-3-ylmethyl)urea], the IC50 at NAMPT amounted to 3 nM; with A2780 cells (Homo sapiens, A2780, 72 h), 143 nM.

Turning to `COc1cc(S(=O)(=O)c2ccc(NC(=O)NCc3cccnc3)cc2)ccc1C` [3-{4-[(3-methoxy-4-methylbenzene)sulfonyl]phenyl}-1-(pyridin-3-ylmethyl)urea], the IC50 is 2.7 nM on NAMPT and 17.9 nM with A2780 cells (Homo sapiens, A2780, 72 h).

Regarding `O=C(NCc1cccnc1)Nc1ccc(S(=O)(=O)Nc2ccccc2-c2ccccc2)cc1` [1-{4-[(2-phenylphenyl)sulfamoyl]phenyl}-3-(pyridin-3-ylmethyl)urea], the IC50 on NAMPT amounted to 3 nM; in the assay on A2780 cells (Homo sapiens, A2780, 72 h), 47 nM.

On to `COc1ccc(C(F)(F)F)cc1S(=O)(=O)c1ccc(NC(=O)NCc2cccnc2)cc1` [3-(4-{[2-methoxy-5-(trifluoromethyl)benzene]sulfonyl}phenyl)-1-(pyridin-3-ylmethyl)urea], for which the IC50 stood at 1.4 nM on NAMPT and 3.3 nM with A2780 cells (Homo sapiens, A2780, 72 h).
